Experimental data: patent US8748113B2, “Methods for detecting and monitoring circulating cancer stem cells” (The Johns Hopkins University, priority 2007, dated 2014)
Entries after “also recorded” stand apart in the source; their conditions may differ.

Assays:
Assay type in all cases: cell-based, human
[1] = tested on: CD138neg MM progenitors derived from primary clinical specimens; experiment: Clonogenic recovery of CD138neg MM progenitors from primary clinical samples; conditions: 4 MM patients; FIG. 10C; P>0.2 compared to the untreated control
[2] = tested on: CD138+ plasma cells from the RPMI 8226 and NCI-H929 MM cell lines; experiment: Clonogenic growth of CD138+ plasma cells isolated from MM cell lines; conditions: FIGS. 10A and B, P<0.02 compared to the untreated control
clonogenic MM cells = experiment: In vitro clonogenic growth of MM precursors (summary statements); conditions: summary statement
Text: Many agents are active in multiple myeloma (MM), but the majority of patients relapse. […] We further characterized clonogenic MM cells and stained cell lines using the Hoechst side population and Aldefluor assays. […] Furthermore, both the side population and Aldefluor assays were capable of identifying circulating clonotypic memory B cell populations within the peripheral blood of MM patients.
CD138^− precursors or CD138^+ plasma cells were isolated from the RPMI 8226 or NCI-H929 cell lines and treated with each of the two humanized monoclonal antibodies, rituximab or alemtuzumab, and in combination with human complement that strongly enhances their in vitro activity through complement dependent cytoxicity. Neither complement alone nor the monoclonal antibodies with or without complement affected the clonogenic growth of CD138^+ plasma cells that lack the target antigens (FIG. 8B; P>0.3 for all groups compared to the untreated control).
Although stem cells have been identified in an increasing number of human cancers, the clinical relevance and implications of these findings remain unclear. Standard response criteria used to measure the clinical efficacy of anti-cancer treatments primarily reflect changes in disease bulk and activity against mature tumor cells. Since cancer stem cells are a relatively low frequency population in most tumor types, the true inhibition of these cells is likely to be difficult to assess early following treatment, and a prolongation of disease remission would be required to establish such activity. The initial clinical responses induced by dexamethasone, lenalidomide, bortezomib and cyclophosphamide seen as decreased bone marrow plasmacytosis and monoclonal Ig levels in MM likely reflect the activity of these agents against mature MM plasma cells. […] It is well known that the anti-tumor activity of these agents is mediated in part by modulating the interaction between myeloma plasma cells and bone marrow stromal cells.
Our results complement a recent report describing the relative radioresistance of glioblastoma cancer stem cells compared to the differentiated cells that make up the bulk of the tumor mass. The stark biological differences between cancer stem cells and mature tumor cells is likely to be representative of many other malignancies as the clinical pattern of relapse following effective treatment can be seen in most human cancers. Therefore, therapeutic strategies that target the specific biology of cancer stem cells are likely required to prevent the continued production of mature tumor cells and produce sustained remissions. […] Therefore, optimal clinical strategies may require combining agents active against MM plasma cells to decrease tumor burden and alleviate symptoms with those that target MM cancer stem cells to prevent tumor regrowth and relapse.

Compound | effect on clonogenic MM precursors from patients [1] | clonogenic growth of CD138+ plasma cells [2] | effect of anti-myeloma agents on CD138neg precursors / clonogenic MM progenitors (clonogenic MM cells) | effect of anti-myeloma agents on CD138neg precursors / clonogenic MM progenitors (clonogenic MM cells; listed as lenadilomide) | effect of antibodies on clonogenic MM cells (clonogenic MM cells)
CC(C)C[C@H](NC(=O)[C@H](Cc1ccccc1)NC(=O)c1cnccn1)B(O)O [bortezomib] | not significantly affected | inhibited | little effect; also recorded: similarly resistant |  | 
Nc1cccc2c1CN(C1CCC(=O)NC1=O)C2=O (stereo not drawn) [lenalidomide] | not significantly affected | inhibited | similarly resistant | little effect | 
Rituximab: humanized monoclonal antibody that targets the B-cell antigen CD20 |  |  |  |  | inhibit clonogenic MM cells
alemtuzumab: humanized monoclonal antibody that targets the B-cell antigen CD52 |  |  |  |  | inhibit clonogenic MM cells
